{
  "source": "patent US20170334899A1",
  "about": "“AMINO-SUBSTITUTED ISOTHIAZOLES” (Bayer Pharma Aktiengesellschaft, priority 2014, published 2017)",
  "note": "Where “and” joins values, the source holds several entries; their conditions need not be identical. Identical values can stand only once.",
  "data": [
    {"target": "T1, human kinase Mps-1 (Homo sapiens, UniProt P33981)", "T1 construct": "N-terminally GST-tagged human full length recombinant Mps-1 kinase; GST (N); purchased Invitrogen, Karslruhe, Germany PV4071", "T1 sequence (P33981 1-857)": "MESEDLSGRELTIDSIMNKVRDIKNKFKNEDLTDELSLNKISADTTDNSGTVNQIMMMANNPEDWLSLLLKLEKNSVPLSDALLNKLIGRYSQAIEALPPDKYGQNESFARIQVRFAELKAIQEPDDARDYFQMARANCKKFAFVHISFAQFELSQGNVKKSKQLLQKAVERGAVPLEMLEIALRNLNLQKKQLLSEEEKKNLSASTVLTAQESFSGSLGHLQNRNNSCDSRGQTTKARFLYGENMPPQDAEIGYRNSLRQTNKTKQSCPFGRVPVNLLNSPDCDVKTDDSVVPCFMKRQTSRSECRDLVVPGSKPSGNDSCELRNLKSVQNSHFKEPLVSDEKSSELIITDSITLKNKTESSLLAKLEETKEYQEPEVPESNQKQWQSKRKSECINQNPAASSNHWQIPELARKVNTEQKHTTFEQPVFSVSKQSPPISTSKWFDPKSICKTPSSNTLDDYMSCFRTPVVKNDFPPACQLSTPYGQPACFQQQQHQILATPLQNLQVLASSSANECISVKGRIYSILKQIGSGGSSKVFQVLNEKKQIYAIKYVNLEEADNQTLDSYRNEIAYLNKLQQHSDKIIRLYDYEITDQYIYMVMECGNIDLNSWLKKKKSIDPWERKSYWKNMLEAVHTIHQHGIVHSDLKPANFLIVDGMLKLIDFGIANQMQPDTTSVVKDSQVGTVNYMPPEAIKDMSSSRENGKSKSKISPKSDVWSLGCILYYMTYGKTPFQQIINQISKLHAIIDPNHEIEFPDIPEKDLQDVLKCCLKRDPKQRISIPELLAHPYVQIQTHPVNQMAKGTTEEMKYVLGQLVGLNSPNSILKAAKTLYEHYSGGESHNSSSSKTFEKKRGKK", "assay": "Mps-1 kinase assay (TR-FRET)", "assay_type": "biochemical", "settings": "Mps-1 TR-FRET kinase assay; avg; read-out: Mps1 avg (IC50 [mol/l])", "how_it_was_run": "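Inhibition normalised between uninhibited reaction (0%) and enzyme-free wells (100%), using the blank-corrected TR-FRET 665/620 nm ratio after EDTA stop. Reaction: ~0.5 nM GST-Mps-1 full length, 10 μM ATP, 1 μM biotin-peptide, 60 min at 22 °C, after 15 min compound pre-binding, pH 7.7.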", "values": [
      {"molecule": "Cc1nsc(Nc2cncc(C(F)(F)F)n2)c1C(=O)Nc1ccc(OC2CCN(CCF)CC2)c(F)c1", "note": "[Example 223, N-(3-fluoro-4-{[1-(2-fluoroethyl)piperidin-4-yl]oxy}phenyl)-3-methyl-5-{[6-(trifluoromethyl)pyrazin-2-yl]amino}-1,2-thiazole-4-carboxamide]", "IC50": "> 20 µM"},
      {"molecule": "Cc1nsc(Nc2cncc(C(F)(F)F)n2)c1C(=O)Nc1ccc(OC2CCN(CC(F)F)CC2)c(F)c1", "note": "[Example 224, N-(4-{[1-(2,2-difluoroethyl)piperidin-4-yl]oxy}-3-fluorophenyl)-3-methyl-5-{[6-(trifluoromethyl)pyrazin-2-yl]amino}-1,2-thiazole-4-carboxamide]", "IC50": "> 20 µM"},
      {"molecule": "Cc1nsc(Nc2cncc(C(F)(F)F)n2)c1C(=O)Nc1ccc(C(=O)NC2CCN(CC(F)F)CC2)cc1", "note": "[Example 225, N-N-(4-{[1-(2,2-difluoroethyl)piperidin-4-yl]carbamoyl}phenyl)-3-methyl-5-{[6-(trifluoromethyl)pyrazin-2-yl]amino}-1,2-thiazole-4-carboxamide]", "IC50": "> 20 µM"},
      {"molecule": "Cc1nsc(Nc2cncc(C(F)(F)F)n2)c1C(=O)Nc1ccc(OCC2CCN(C(=O)OC(C)(C)C)CC2)nc1", "note": "[Example 226, tert-butyl 4-{[(5-{[(3-methyl-5-{[6-(trifluoromethyl)pyrazin-2-yl]amino}-1,2-thiazol-4-yl)carbonyl]amino}pyridin-2-yl)oxy]methyl}piperidine-1-carboxylate]", "IC50": "> 20 µM"},
      {"molecule": "Cc1nsc(Nc2cnc(C(F)(F)F)cn2)c1C(=O)Nc1ccc(OCC2CCN(C(=O)OC(C)(C)C)CC2)nc1", "note": "[Example 227, tert-butyl 4-{[(5-{[(3-methyl-5-{[5-(trifluoromethyl)pyrazin-2-yl]amino}-1,2-thiazol-4-yl)carbonyl]amino}pyridin-2-yl)oxy]methyl}piperidine-1-carboxylate]", "IC50": "> 20 µM"},
      {"molecule": "Cc1nsc(Nc2cnc(C(F)(F)F)cn2)c1C(=O)Nc1ccc(OCC2CCCN(C(=O)OC(C)(C)C)C2)nc1", "note": "(centres unmarked) [Example 228, tert-butyl 3-{[(5-{[(3-methyl-5-{[5-(trifluoromethyl)pyrazin-2-yl]amino}-1,2-thiazol-4-yl)carbonyl]amino}pyridin-2-yl)oxy]methyl}piperidine-1-carboxylate]", "IC50": "> 20 µM"},
      {"molecule": "Cc1nsc(Nc2cnc(C(F)(F)F)cn2)c1C(=O)Nc1ccc(F)c(OC2CCN(C(=O)OC(C)(C)C)CC2)c1", "note": "[Example 229, tert-butyl 4-(2-fluoro-5-{[(3-methyl-5-{[5-(trifluoromethyl)pyrazin-2-yl]amino}-1,2-thiazol-4-yl)carbonyl]amino}phenoxy)piperidine-1-carboxylate]", "IC50": "> 20 µM"},
      {"molecule": "Cc1nsc(Nc2cc(C#N)ccn2)c1C(=O)Nc1ccc(Oc2cccc(C(F)(F)F)c2)nc1", "note": "[Example 230, 5-[(4-cyanopyridin-2-yl)amino]-3-methyl-N-{6-[3-(trifluoromethyl)phenoxy]pyridin-3-yl}-1,2-thiazole-4-carboxamide]", "IC50": "> 20 µM"},
      {"molecule": "Cc1nsc(Nc2cnc3ccccc3n2)c1C(=O)Nc1ccc(Oc2cccnc2)nc1", "note": "[Example 231, 3-methyl-N-[6-(pyridin-3-yloxy)pyridin-3-yl]-5-(quinoxalin-2-ylamino)-1,2-thiazole-4-carboxamide]", "IC50": "> 20 µM"},
      {"molecule": "Cc1nsc(Nc2cnc3ccccc3n2)c1C(=O)Nc1ccc(Oc2ccc(SC(F)(F)F)cc2)nc1", "note": "[Example 233, 3-methyl-5-(quinoxalin-2-ylamino)-N-(6-{4-[(trifluoromethyl)sulfanyl]phenoxy}pyridin-3-yl)-1,2-thiazole-4-carboxamide]", "IC50": "> 20 µM"},
      {"molecule": "Cc1nsc(Nc2cnc3ccccc3n2)c1C(=O)Nc1ccc(NC2CCN(C(=O)OC(C)(C)C)CC2)nc1", "note": "[Example 234, tert-butyl 4-{[5-({[3-methyl-5-(quinoxalin-2-ylamino)-1,2-thiazol-4-yl]carbonyl}amino)pyridin-2-yl]amino}piperidine-1-carboxylate]", "IC50": "> 20 µM"},
      {"molecule": "COc1ccc(NC(=O)c2c(C)nsc2Nc2cnc3ccccc3n2)c(CC#N)n1", "note": "[Example 235, N-[2-(cyanomethyl)-6-methoxypyridin-3-yl]-3-methyl-5-(quinoxalin-2-ylamino)-1,2-thiazole-4-carboxamide]", "IC50": "12 µM"},
      {"molecule": "Cc1nsc(Nc2cnc3ccccc3n2)c1C(=O)Nc1ccc(NCCC(=O)OC(C)(C)C)nc1", "note": "[Example 236, tert-butyl N-[5-({[3-methyl-5-(quinoxalin-2-ylamino)-1,2-thiazol-4-yl]carbonyl}amino)pyridin-2-yl]-beta-alaninate]", "IC50": "> 20 µM and 14 µM"},
      {"molecule": "COC(=O)c1cc(NC(=O)c2c(C)nsc2Nc2cnc3ccccc3n2)cc(C(=O)OC)c1", "note": "[Example 237, dimethyl 5-({[3-methyl-5-(quinoxalin-2-ylamino)-1,2-thiazol-4-yl]carbonyl}amino)isophthalate]", "IC50": "> 20 µM"},
      {"molecule": "Cc1nsc(Nc2cc(C#N)ccn2)c1C(=O)Nc1cccc(C(=O)OC(C)(C)C)c1", "note": "[Example 239, tert-butyl 3-[({5-[(4-cyanopyridin-2-yl)amino]-3-methyl-1,2-thiazol-4-yl}carbonyl)amino]benzoate]", "IC50": "> 20 µM"},
      {"molecule": "Cc1nsc(Nc2ccc(C#N)cn2)c1C(=O)Nc1cccc(C(=O)OC(C)(C)C)c1", "note": "[Example 240, tert-butyl 3-[({5-[(5-cyanopyridin-2-yl)amino]-3-methyl-1,2-thiazol-4-yl}carbonyl)amino]benzoate]", "IC50": "> 20 µM"},
      {"molecule": "Cc1nsc(Nc2cnc3ccccc3n2)c1C(=O)Nc1ccc(NC2CCCN(C(=O)OC(C)(C)C)C2)nc1", "note": "(centres unmarked) [Example 241, tert-butyl 3-{[5-({[3-methyl-5-(quinoxalin-2-ylamino)-1,2-thiazol-4-yl]carbonyl}amino)pyridin-2-yl]amino}piperidine-1-carboxylate]", "IC50": "> 20 µM"},
      {"molecule": "Cc1nsc(Nc2cc(C#N)ccn2)c1C(=O)Nc1ccc(NC2CCCNC2)nc1", "note": "(centres unmarked) [Example 242, 5-[(4-cyanopyridin-2-yl)amino]-3-methyl-N-[6-(piperidin-3-ylamino)pyridin-3-yl]-1,2-thiazole-4-carboxamide]", "IC50": "> 20 µM"},
      {"molecule": "Cc1cc(C)n(-c2ccccc2NC(=O)c2c(C)nsc2Nc2cnc3ccccc3n2)n1", "note": "[Example 243, N-[2-(3,5-dimethyl-1H-pyrazol-1-yl)phenyl]-3-methyl-5-(quinoxalin-2-ylamino)-1,2-thiazole-4-carboxamide]", "IC50": "> 20 µM"},
      {"molecule": "Cc1nsc(Nc2cnc3ccccc3n2)c1C(=O)Nc1ccc(NCCNC(=O)OC(C)(C)C)nc1", "note": "[Example 244, tert-butyl (2-{[5-({[3-methyl-5-(quinoxalin-2-ylamino)-1,2-thiazol-4-yl]carbonyl}amino)pyridin-2-yl]amino}ethyl)carbamate]", "IC50": "> 20 µM"},
      {"molecule": "Cc1nsc(Nc2cnc3ccccc3n2)c1C(=O)Nc1ccc(Nc2ccc(F)c(F)c2)nc1", "note": "[Example 245, N-{6-[(3,4-difluorophenyl)amino]pyridin-3-yl}-3-methyl-5-(quinoxalin-2-ylamino)-1,2-thiazole-4-carboxamide]", "IC50": "> 20 µM and 19 µM"},
      {"molecule": "Cc1nsc(Nc2ccc(C#N)cn2)c1C(=O)Nc1ccc(S(C)(=O)=O)cc1", "note": "[Example 246, 5-[(5-cyanopyridin-2-yl)amino]-3-methyl-N-[4-(methylsulfonyl)phenyl]-1,2-thiazole-4-carboxamide]", "IC50": "> 20 µM"},
      {"molecule": "CCN(CC)CCNC(=O)c1cccc(NC(=O)c2c(C)nsc2Nc2cnccn2)c1", "note": "[Example 247, N-(3-{[2-(diethylamino)ethyl]carbamoyl}phenyl)-3-methyl-5-(pyrazin-2-ylamino)-1,2-thiazole-4-carboxamide]", "IC50": "> 20 µM"}
    ]}
  ]
}
